From ChEMBL document CHEMBL1201862, “PubChem BioAssay data set” (2004)
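Values below derive from 48-hour exposures of cells grown in 96-well plates, with endpoints linearly interpolated between the two concentrations bracketing the appropriate inhibition level. GI50 = concentration required for 50% inhibition of growth.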 Activity calls are given as the source filed them. Rule as the data show it: active = GI50 up to about 1.1 µM and inactive = higher.

Experiments:
Experiment in all cases: NCI tumour cell line growth inhibition, 48 h
A498 = tested on: A498
CCRF-CEM = tested on: CCRF-CEM
DU-145 = tested on: DU-145
K562 = tested on: K562
KM12 = tested on: KM12
M14 = tested on: M14
MDA-MB-231 = tested on: MDA-MB-231
MDA-MB-435 = tested on: MDA-MB-435
MDA-N = tested on: MDA-N
NCI-H522 = tested on: NCI-H522
OVCAR-3 = tested on: OVCAR-3
SF-268 = tested on: SF-268
SF-295 = tested on: SF-295
SK-MEL-2 = tested on: SK-MEL-2
SNB-19 = tested on: SNB-19
SR = tested on: SR
TK-10 = tested on: TK-10
U-251 = tested on: U-251
UO-31 = tested on: UO-31
SNB-75 = tested on: SNB-75

| Structure (SMILES) | GI50 (A498) | GI50 (CCRF-CEM) | GI50 (DU-145) | GI50 (K562) | GI50 (KM12) | GI50 (M14) | GI50 (MDA-MB-231) | GI50 (MDA-MB-435) | GI50 (MDA-N) | GI50 (NCI-H522) | GI50 (OVCAR-3) | GI50 (SF-268) | GI50 (SF-295) | GI50 (SK-MEL-2) | GI50 (SNB-19) | GI50 (SR) | GI50 (TK-10) | GI50 (U-251) | GI50 (UO-31) | GI50 (SNB-75) |
| --- | --- | --- | --- | --- | --- | --- | --- | --- | --- | --- | --- | --- | --- | --- | --- | --- | --- | --- | --- | --- |
| COc1ccc2cc(-c3ccc(OC)c(OC)c3)c(=O)oc2c1 | 96.8 µM (inactive) | > 100 µM (inactive) | > 100 µM (inactive) | > 100 µM (inactive) | > 100 µM (inactive) | > 100 µM (inactive) | 48.6 µM (inactive) | > 100 µM (inactive) | > 100 µM (inactive) | > 100 µM (inactive) | > 100 µM (inactive) | 62.1 µM (inactive) | 53.1 µM (inactive) | > 100 µM (inactive) | 40 µM (inactive) | > 100 µM (inactive) | > 100 µM (inactive) | 57.4 µM (inactive) | > 100 µM (inactive) | – |
| C=CCC1(C)CCCN(Cc2ccccc2)C1=O (stereo not drawn) | 1.32 µM (inactive) | > 10 µM (inactive) | > 10 µM (inactive) | > 10 µM (inactive) | > 10 µM (inactive) | > 10 µM (inactive) | > 10 µM (inactive) | > 10 µM (inactive) | > 10 µM (inactive) | > 10 µM (inactive) | > 10 µM (inactive) | > 10 µM (inactive) | > 10 µM (inactive) | > 10 µM (inactive) | > 10 µM (inactive) | > 10 µM (inactive) | > 10 µM (inactive) | > 10 µM (inactive) | > 10 µM (inactive) | – |
| C=C1C(=O)O[C@@H]2/C=C(C)/C=C\[C@@H]3O[C@@]3(C)C[C@@H](O)C12 (stereo partly drawn) | 15.8 µM (inactive) | 1.66 µM (inactive) | 3.63 µM (inactive) | 3.5 µM (inactive) | 15.5 µM (inactive) | 18.3 µM (inactive) | > 10 µM (inactive) | 18 µM (inactive) | 13.2 µM (inactive) | 4.23 µM (inactive) | 14.1 µM (inactive) | 26.4 µM (inactive) | 49.7 µM (inactive) | 30.8 µM (inactive) | 17.5 µM (inactive) | – | 3.81 µM (inactive) | 17.8 µM (inactive) | 12.4 µM (inactive) | 44.3 µM (inactive) |
| O=C1N2CCc3c([nH]c4ccccc34)C23CC2CCCCC12S3 (stereo not drawn) | > 100 µM (inactive) | – | > 100 µM (inactive) | 34.6 µM (inactive) | > 100 µM (inactive) | > 100 µM (inactive) | > 100 µM (inactive) | > 100 µM (inactive) | > 100 µM (inactive) | > 100 µM (inactive) | > 100 µM (inactive) | > 100 µM (inactive) | > 100 µM (inactive) | < 0.01 µM (active) | > 100 µM (inactive) | 34.5 µM (inactive) | 28.3 µM (inactive) | > 100 µM (inactive) | > 100 µM (inactive) | – |
| O=C1NC(=O)C(CCC(=O)c2cccc3ccccc23)C(=O)N1 | > 100 µM (inactive) | > 10 µM (inactive) | > 100 µM (inactive) | > 100 µM (inactive) | > 100 µM (inactive) | > 100 µM (inactive) | > 100 µM (inactive) | > 100 µM (inactive) | > 100 µM (inactive) | – | > 100 µM (inactive) | > 100 µM (inactive) | 60.1 µM (inactive) | > 100 µM (inactive) | > 100 µM (inactive) | 85.3 µM (inactive) | – | > 100 µM (inactive) | > 100 µM (inactive) | 26.4 µM (inactive) |
| COC1/C=C/C(C)C(C(C)C(OC)C(C)CCC(=O)C(C)C(C/C=C/N(C)C=O)OC)OC(=O)C=CC2OC2(C)CC(OC)C(OC)C2=CC(=O)O[C@@H](C(C)C(OC)CC(OC)/C=C/C(C)C(O)C1)[C@H]2O (stereo partly drawn) | 0.00785 µM (active) | 0.00935 µM (active) | 0.00938 µM (active) | 0.00277 µM (active) | 0.00708 µM (active) | 0.00333 µM (active) | 0.0032 µM (active) | 0.0137 µM (active) | 0.00471 µM (active) | 0.00369 µM (active) | 0.0108 µM (active) | 0.00451 µM (active) | 0.00775 µM (active) | 0.0175 µM (active) | 0.0121 µM (active) | 0.012 µM (active) | 0.0119 µM (active) | 0.0146 µM (active) | 0.00308 µM (active) | – |
| Cc1cc2ccccc2n1CC(=O)N1CCCC1 | – | > 100 µM (inactive) | > 100 µM (inactive) | > 100 µM (inactive) | > 100 µM (inactive) | > 100 µM (inactive) | > 100 µM (inactive) | > 100 µM (inactive) | > 100 µM (inactive) | > 100 µM (inactive) | > 100 µM (inactive) | > 100 µM (inactive) | – | > 100 µM (inactive) | > 100 µM (inactive) | > 100 µM (inactive) | > 100 µM (inactive) | > 100 µM (inactive) | > 100 µM (inactive) | > 100 µM (inactive) |
| Cc1c2ccccc2cc2nc3ccccc3n12 | – | > 10 µM (inactive) | > 10 µM (inactive) | > 10 µM (inactive) | > 10 µM (inactive) | > 10 µM (inactive) | > 10 µM (inactive) | > 10 µM (inactive) | > 10 µM (inactive) | > 10 µM (inactive) | > 10 µM (inactive) | > 10 µM (inactive) | > 10 µM (inactive) | > 10 µM (inactive) | > 10 µM (inactive) | > 10 µM (inactive) | 0.00668 µM (active) | > 10 µM (inactive) | – | > 10 µM (inactive) |
